Two molecules from patent US12281149B2, “Modulators of G-protein coupled receptors” (priority 2021, dated 2025) can be followed below.

Common to all, as to type: cell-based
In test [1] the target is T1, GIP receptor (Homo sapiens, UniProt P48546).
T1 sequence (P48546 22-466): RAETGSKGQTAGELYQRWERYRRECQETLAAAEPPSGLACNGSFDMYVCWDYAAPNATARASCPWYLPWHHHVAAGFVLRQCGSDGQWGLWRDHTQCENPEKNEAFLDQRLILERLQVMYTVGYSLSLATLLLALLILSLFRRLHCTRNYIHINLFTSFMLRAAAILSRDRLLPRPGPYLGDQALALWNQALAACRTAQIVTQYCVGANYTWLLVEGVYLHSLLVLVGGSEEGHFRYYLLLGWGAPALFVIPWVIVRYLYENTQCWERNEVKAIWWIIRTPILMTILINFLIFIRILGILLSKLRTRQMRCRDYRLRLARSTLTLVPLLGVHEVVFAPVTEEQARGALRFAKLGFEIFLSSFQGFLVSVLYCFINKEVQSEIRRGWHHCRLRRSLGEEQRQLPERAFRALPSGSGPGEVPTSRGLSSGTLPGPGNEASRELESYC
The test is described as follows: HitHunter cAMP assay, GIP receptor. Conditions: for pEC50: CHO cells stably expressing GIP receptor, cAMP accumulation, 30 min, read-out: EC50 GIP-1R; for Emax: CHO cells, cAMP, normalized to maximum signal from GIP (high) and DMSO (low), read-out: Emax GIP-1R. A general note: Changes in cAMP serve as a functional read-out for many G protein-coupled receptors.

Test [2] has as its target T2, GLP-1 receptor (Homo sapiens, UniProt P43220). The experiment in a line: PathHunter β-arrestin assay, GLP-1 receptor. Set-up: host or cells: PathHunter CHO-K1 GLP1R β-Arrestin Cell Line. Conditions: β-arrestin-2 recruitment, PathHunter CHO-K1 GLP1R β-Arrestin Cell Line, 90 min at 37° C.; normalized to GLP-1; read-out: GLP-1R β Arrestin EC50.
Description: (§1) β-arrestin-2 recruitment for GLP-1 receptor or GIP receptor was measured using the DiscoverX PathHunter Detection Kit and PathHunter® CHO-K1 GLPIR β-Arrestin Cell Line or PathHunter® CHO-K1 GIPR β-Arrestin Cell Line, respectively). Briefly, cells were grown in Ham's F12 Nutrient Mix with 10% FBS and lifted with Cell dissociation buffer, Enzyme free, PBS based (ThermoFisher). Harvested cells were pelleted and resuspended in Assay Complete Cell Plating Reagent 2 and 5000 cells per well were plated in tissue culture treated 384-well small volume white assay plates. Plates were then incubated at 37° C. and 5% CO2 overnight. The media was then replaced with fresh Assay Complete Cell Plating Reagent 2. Cells were then treated with 10 nl compound in DMSO using an ECHO 550 acoustic dispenser (Labcyte) in a 20-point dose response format in duplicate for 90 min at 37° C. The assay was then completed according to the manufacturer's instructions. Luminescence was measured using a Perkin Elmer Envision plate reader. Raw data was normalized to the maximum signal from GLP-1 or GIP (high) and DMSO (low). Dose response curves were analyzed using GraphPad Prism 9.0.
In test [3] the target is T1, GIP receptor. The test is described as follows: PathHunter β-arrestin assay, GIP receptor. Set-up: host or cells: PathHunter CHO-K1 GIPR β-Arrestin Cell Line. Conditions: β-arrestin-2 recruitment, PathHunter CHO-K1 GIPR β-Arrestin Cell Line, 90 min at 37° C.; normalized to GIP; read-out: GIPR β Arrestin EC50. A general note: Activated receptors often draw arrestin, which recruitment assays turn into a signal.
Description: as §1

In test [4] the target is T2, GLP-1 receptor. The test is described as follows: HitHunter cAMP assay, GLP-1 receptor. Conditions: for pEC50: CHO cells stably expressing human GLP-1 receptor, cAMP accumulation, 30 min, read-out: EC50 GLP-1R; for Emax: CHO cells, cAMP, normalized to maximum signal from GLP-1 (high) and DMSO (low), read-out: Emax GLP-1R.

Each structure is given as a SMILES string. pEC50: −log10 of the molar value. *1 amine or outer side, *2 acyl side, *3 side chain or, on linkers, in order; H or OH if unused. Where a SMILES comes first, the peptide text is derived from it. Side-chain parts run from the residue outwards. [ ]: non-standard residue; d: D form. The star is where a group is joined. Isobutyryl(2-(3-CN-5-F-Ph)) = CC(C)(C(=O)*)c1cc(F)cc(C#N)c1; C20 diacid = O=C(O)CCCCCCCCCCCCCCCCCCC(=O)*; γGlu = O=C(O)[C@H](CCC(=O)[*:2])N[*:1]; AEEA = NCCOCCOCC(=O)O; Aib = CC(C)(N)C(=O)O; βAla = NCCC(=O)O

T2 sequence (P43220 24-463): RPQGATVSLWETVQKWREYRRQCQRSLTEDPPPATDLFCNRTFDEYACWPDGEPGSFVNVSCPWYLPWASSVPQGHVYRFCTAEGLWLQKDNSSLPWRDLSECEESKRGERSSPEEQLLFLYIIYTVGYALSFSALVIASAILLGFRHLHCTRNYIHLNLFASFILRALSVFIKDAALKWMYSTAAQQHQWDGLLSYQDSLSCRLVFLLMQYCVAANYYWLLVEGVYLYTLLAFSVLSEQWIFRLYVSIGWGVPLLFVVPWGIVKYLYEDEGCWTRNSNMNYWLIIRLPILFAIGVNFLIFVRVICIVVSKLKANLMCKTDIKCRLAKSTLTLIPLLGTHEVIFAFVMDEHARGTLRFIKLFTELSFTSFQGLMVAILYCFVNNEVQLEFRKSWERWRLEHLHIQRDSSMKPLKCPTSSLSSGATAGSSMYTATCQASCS

A word on the pEC50: it is the EC50 on a negative log10 scale, so that one unit is a factor of ten. The Emax is the maximal effect, on the per cent scale that the assay sets. `CC[C@H](C)[C@H](NC(=O)[C@H](CC(C)C)NC(=O)[C@H](Cc1c[nH]c2ccccc12)NC(=O)[C@H](CCC(N)=O)NC(=O)[C@@H](NC(=O)[C@H](Cc1ccccc1)NC(=O)[C@H](C)NC(=O)[C@H](CCCCNC(=O)COCCOCCNC(=O)COCCOCCNC(=O)CC[C@H](NC(=O)CCCCCCCCCCCCCCCCCCC(=O)O)C(=O)O)NC(=O)[C@H](CCC(N)=O)NC(=O)[C@H](C)NC(=O)[C@H](CCC(N)=O)NC(=O)[C@H](CCCCN)NC(=O)[C@H](CC(=O)O)NC(=O)[C@H](CC(C)C)NC(=O)C(C)(C)NC(=O)[C@@H](NC(=O)[C@H](CO)NC(=O)[C@H](Cc1ccc(O)cc1)NC(=O)[C@H](CC(=O)O)NC(=O)[C@H](CO)NC(=O)[C@@H](NC(=O)[C@H](Cc1ccccc1)NC(=O)[C@@H](NC(=O)CNC(=O)[C@H](CCC(=O)O)NC(=O)CCNC(=O)C(C)(C)c1cc(F)cc(C#N)c1)[C@@H](C)O)[C@@H](C)O)[C@@H](C)CC)C(C)C)C(=O)N[C@@H](C)C(=O)NCC(=O)NCC(=O)N1CCC[C@H]1C(=O)N[C@@H](CO)C(=O)N[C@@H](CO)C(=O)NCC(=O)N[C@@H](C)C(=O)N1CCC[C@H]1C(=O)N1CCC[C@H]1C(=O)N1CCC[C@H]1C(=O)N[C@@H](CO)C(N)=O` [Compound 186] ({Isobutyryl(2-(3-CN-5-F-Ph))-βAla}-EGTFTSDYSI[Aib]LDKQAQK([AEEA-AEEA-γGlu-C20 diacid])AFVQWLIAGGPSSGAPPPS-NH2): the pEC50 on GIP receptor [1] is 7.00 to 8.00; on GLP-1 receptor [2], below 6.00; on GIP receptor [3], below 6.00; on GLP-1 receptor [4], 9.00 to 10.00. The Emax at GIP receptor [1] was 100%; on GLP-1 receptor [4] it was 99%.
For `CC[C@H](C)[C@H](NC(=O)[C@H](CO)NC(=O)[C@H](Cc1ccc(O)cc1)NC(=O)[C@H](CC(=O)O)NC(=O)[C@H](CO)NC(=O)[C@@H](NC(=O)[C@H](Cc1ccccc1)NC(=O)[C@@H](NC(=O)CNC(=O)[C@H](CCC(=O)O)NC(=O)CCNC(=O)C(C)(C)c1cc(F)cc(C#N)c1)[C@@H](C)O)[C@@H](C)O)C(=O)N[C@@H](Cc1ccc(O)cc1)C(=O)N[C@@H](CC(C)C)C(=O)N[C@@H](CC(=O)O)C(=O)N[C@@H](CCCCN)C(=O)N[C@@H](CCC(N)=O)C(=O)N[C@@H](C)C(=O)N[C@@H](C)C(=O)NC(C)(C)C(=O)N[C@@H](CCC(=O)O)C(=O)N[C@@H](Cc1ccccc1)C(=O)N[C@H](C(=O)N[C@@H](CC(N)=O)C(=O)N[C@@H](Cc1c[nH]c2ccccc12)C(=O)N[C@@H](CC(C)C)C(=O)N[C@@H](CC(C)C)C(=O)N[C@@H](C)C(=O)NCC(=O)NCC(=O)N1CCC[C@H]1C(=O)N[C@@H](CO)C(=O)N[C@@H](CO)C(=O)NCC(=O)N[C@@H](C)C(=O)N1CCC[C@H]1C(=O)N1CCC[C@H]1C(=O)N1CCC[C@H]1C(=O)N[C@@H](CO)C(=O)N[C@@H](CCCCNC(=O)COCCOCCNC(=O)COCCOCCNC(=O)CC[C@H](NC(=O)CCCCCCCCCCCCCCCCCCC(=O)O)C(=O)O)C(N)=O)C(C)C` [Compound 187], the pEC50 on GIP receptor [1] was 7.00 to 8.00; at GLP-1 receptor [2], below 6.00; at GIP receptor [3] it was below 6.00; on GLP-1 receptor [4] it was 8.00 to 9.00. Besides, the Emax on GIP receptor [1] and at GLP-1 receptor [4] was 95% throughout.
